{"source": "patent US20210113501A1", "about": "“METHOD OF ADMINISTERING BETA-HYDROXY-BETA-METHYLBUTYRATE (HMB)” (Metabolic Technologies, Inc., priority 2009, published 2021)", "key": {"[1]": {"test_system": "protein degradation in muscle", "assay": "Urinary 3-methylhistidine to creatinine ratio after an acute exercise bout", "assay_type": "in vivo, human", "description": "Subjects: We conducted a study at the Iowa State University Health and Human Performance Laboratory; this study was approved by the Iowa State University Institutional Review Board, and was registered at ClinicalTrials.gov (NCT01150526). We recruited 12 men and 13 women between the ages of 20 and 36 from the Iowa State University community and surrounding area.\nTreatments: The experimental design is depicted in FIG. 8.\nFive treatments were administered as follows: Treatment 1: Placebo. This group received a placebo capsule and a placebo syringe dosage at each dosage administration. Treatment 2: CaHMB pre-exercise. This group received a CaHMB capsule and a placebo syringe dosage 30 min prior to the acute exercise bout. The remaining additional dosages during the study consisted of one placebo capsule and one placebo syringe dosage. Treatment 3: HMB-acid gel pre-exercise. This group received a placebo capsule and a syringe dosage of HMB-acid gel 30 min prior to the acute exercise bout. The remaining additional dosages during the study consisted of one placebo capsule and one placebo syringe dosage. Treatment 4: CaHMB pre- and post-exercise. This group received a CaHMB capsule and a placebo syringe dosage at all administration times during the study. Treatment 5: HMB-acid gel pre- and post-exercise. This group received a syringe dosage of HMB-acid gel and one placebo capsule at all administration times during the study.\nTo blind the treatments to both the researchers and subjects, each subject took a capsule and syringe dosage of supplement at each administration. The capsules contained either one gram of calcium lactate (Placebo) or one gram of calcium β-hydroxy-β-methylbutryate (CaHMB). The syringe dosages were formulated to be similar in taste and appearance and contained either 0.8 g of corn syrup (Placebo) or 0.8 g of β-hydroxy-β-methylbutryate free acid, the same amount of HMB as in the capsule dosage. The 3 daily doses provided the same total HMB dosage (2.4 g as calcium HMB in the capsules or 2.4 g as HMB free acid in the syringes).\nEccentric Exercise Bout: Subjects refrained from vigorous exercise for three days before reporting to the laboratory. All subjects were studied after an overnight fast. […] Subjects then consumed their assigned supplement and 30 minutes later the eccentric exercise session was performed. The exercise consisted of 50 maximal effort contractions of knee extensors while attempting to resist the Biodex lever arm as it moves the knee joint from full extension to 90 degrees flexion; this is similar to letting a heavy weight down slowly while in a seated position. Each contraction lasted about 2 seconds and 12 seconds were allowed between contractions. This protocol was performed on the right leg followed by the left leg. The subjects received 2 more daily dosages of treatment (placebo or HMB) with instructions to take the dosages at lunch and dinner. For the next 4 days the subjects returned to the laboratory fasted each morning, had blood taken and urine collected and then consumed the morning dosage of their supplement. The subjects were again given the 2 remaining daily supplement dosages with instructions to take them at lunch and dinner.\nSerum and Urine Samples: A fasting blood sample was taken from a superficial forearm vein each morning when the subjects reported to the laboratory for testing. Additionally a clean catch urine sample was collected at this time. Serum CPK was analyzed by a commercial laboratory (Quest Diagnostics, Madison N.J.). Urine 3-Methylhistidine (3MH) was analyzed by a previously published GC/MS method (9). Urinary creatinine was analyzed by colorimetric assay (Cayman Chemical Company, Ann Arbor, Mich.). The urinary 3MH data was normalized to urinary creatinine and expressed as 3MH:creatinine ratio, μmol:mg.\nStatistics: Data were analyzed using the mixed model procedure in Statistical Analysis System for Windows (Release 9.1.3, SAS Institute, Cary, N.C.). […]"}, "[2]": {"conditions": "cited from earlier work"}}, "data": [{"smiles": "CC(C)(O)CC(=O)[O-].CC(C)(O)CC(=O)[O-].[Ca+2]", "note": "[CaHMB, calcium β-hydroxy-β-methylbutryate, reference compound]", "values": [{"measurement": "3MH:Cr", "setting": "[1]; Baseline, dosed pre- and post exercise (Treatments 4, 5)", "value": "0.205 ± 0.025", "unit": "µmol/mg"}, {"measurement": "3MH:Cr", "setting": "[1]; Baseline, dosed pre-exercise only (Treatments 2, 3)", "value": "0.164 ± 0.037", "unit": "µmol/mg"}, {"measurement": "3MH:Cr", "setting": "[1]; at 24 h, dosed pre- and post exercise (Treatments 4, 5)", "value": "0.203 ± 0.039", "unit": "µmol/mg"}, {"measurement": "3MH:Cr", "setting": "[1]; at 24 h, dosed pre-exercise only (Treatments 2, 3)", "value": "0.190 ± 0.027", "unit": "µmol/mg"}, {"measurement": "3MH:Cr", "setting": "[1]; at 48 h, dosed pre- and post exercise (Treatments 4, 5)", "value": "0.220 ± 0.027", "unit": "µmol/mg"}, {"measurement": "3MH:Cr", "setting": "[1]; at 48 h, dosed pre-exercise only (Treatments 2, 3)", "value": "0.240 ± 0.052", "unit": "µmol/mg"}, {"measurement": "3MH:Cr", "setting": "[1]; at 72 h, dosed pre- and post exercise (Treatments 4, 5)", "value": "0.231 ± 0.037", "unit": "µmol/mg"}, {"measurement": "3MH:Cr", "setting": "[1]; at 72 h, dosed pre-exercise only (Treatments 2, 3)", "value": "0.204 ± 0.058", "unit": "µmol/mg"}, {"measurement": "3MH:Cr", "setting": "[1]; at 96 h, dosed pre- and post exercise (Treatments 4, 5)", "value": "0.269 ± 0.038", "unit": "µmol/mg"}, {"measurement": "3MH:Cr", "setting": "[1]; at 96 h, dosed pre-exercise only (Treatments 2, 3)", "value": "0.187 ± 0.029", "unit": "µmol/mg"}, {"measurement": "time of peak plasma HMB levels after ingestion", "setting": "[2]; depending upon the dosage", "value": "60 to 120", "unit": "min"}, {"measurement": "plasma peak levels, 3 grams versus 1 gram dose", "setting": "[2]; oral, Vukovich et al", "value": 3, "unit": "times"}, {"measurement": "time to peak plasma levels", "setting": "[2]; typical 1 gram dosage", "value": 2, "unit": "h"}]}]}
